This is an account of results in ChEMBL document CHEMBL1136529, “Synthesis and SAR of cis-1-benzoyl-1,2,3,4-tetrahydroquinoline ligands for control of gene expression in ecdysone responsive systems” (Bioorg Med Chem Lett, 2003).

Holding throughout (type): functional
Assay [1] concerns the target T1, Ecdysone receptor (Aedes aegypti) (UniProt P49880).
T1 sequence (whole entry): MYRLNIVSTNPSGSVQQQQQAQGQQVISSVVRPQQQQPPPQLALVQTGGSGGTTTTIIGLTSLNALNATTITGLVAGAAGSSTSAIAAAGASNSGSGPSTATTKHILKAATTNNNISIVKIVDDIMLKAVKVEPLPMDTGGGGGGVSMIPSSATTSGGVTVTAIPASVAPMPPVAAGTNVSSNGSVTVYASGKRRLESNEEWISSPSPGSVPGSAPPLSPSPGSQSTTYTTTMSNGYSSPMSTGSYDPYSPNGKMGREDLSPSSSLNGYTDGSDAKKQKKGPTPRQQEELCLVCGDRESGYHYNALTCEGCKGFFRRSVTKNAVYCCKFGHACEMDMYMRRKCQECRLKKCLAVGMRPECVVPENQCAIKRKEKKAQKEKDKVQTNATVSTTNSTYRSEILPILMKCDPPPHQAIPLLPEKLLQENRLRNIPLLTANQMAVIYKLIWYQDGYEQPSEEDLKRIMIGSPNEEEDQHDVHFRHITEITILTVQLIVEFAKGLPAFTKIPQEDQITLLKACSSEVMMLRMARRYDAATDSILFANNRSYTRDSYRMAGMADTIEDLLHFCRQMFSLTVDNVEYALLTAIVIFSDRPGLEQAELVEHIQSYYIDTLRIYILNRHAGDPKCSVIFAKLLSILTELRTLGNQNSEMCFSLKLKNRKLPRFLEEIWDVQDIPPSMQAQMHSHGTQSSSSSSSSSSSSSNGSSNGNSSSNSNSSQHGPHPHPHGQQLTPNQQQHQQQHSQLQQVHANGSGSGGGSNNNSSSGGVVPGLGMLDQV
The experiment in a line: Ratio of maximal ecdysone-dependent transactivation in cell line expressing Aedes aegypti ecdysone receptor compared to cpd2.

Assay [2] concerns the target T1, Ecdysone receptor (Aedes aegypti). The experiment in a line: Fold induction of ecdysone-dependent transactivation in mammalian cell line expressing Aedes aegypti ecdysone receptor at 33 uM.
For a further assay, the target named is T2, Ecdysone receptor (Aedes aegypti, UniProt P49880).
T2 sequence (P49880 whole entry): T1 sequence (whole entry)
The experiment in a line: Effective concentration for ecdysone-dependent transactivation in mammalian cell line expressing Aedes aegypti ecdysone receptor.

Consider `COc1ccc(C(=O)N2c3ccccc3[C@@H](Nc3ccccc3)C[C@H]2C)cc1`, for which the Rel Max FI in assay [1] was found to be 0.44. Besides, the Fold induction in assay [2] stood at 64. The same molecule had an EC50 at Ecdysone receptor of 1430 nM.
Taken in the same sequence, the figures for `Cc1ccc(N[C@H]2C[C@@H](C)N(C(=O)c3cccc(C(F)(F)F)c3)c3ccc(C)cc32)cc1` were 0.47, 12 and 1840 nM.
`Cc1ccc(N[C@H]2C[C@@H](C)N(C(=O)c3ccc(Cl)cc3)c3ccc(C)cc32)cc1`: the Rel Max FI in assay [1] was 0.39. Moreover, the Fold induction in assay [2] is 43. Besides, the EC50 at Ecdysone receptor stood at 2150 nM.
The matching figures for `Cc1ccccc1C(=O)N1c2ccc(F)cc2[C@@H](Nc2ccc(F)cc2)C[C@H]1C`: 0.5, 158 and 3190 nM.
Taken in the same sequence, the figures for `C[C@@H]1C[C@H](Nc2ccc(F)cc2)c2cc(F)ccc2N1C(=O)c1ccccc1C(F)(F)F` were 0.32, 64 and 11000 nM.
Taken in the same sequence, the figures for `Cc1ccc(N[C@H]2C[C@@H](C)N(C(=O)c3ccccc3C(F)(F)F)c3ccc(C)cc32)cc1` were 0.04, 12 and over 33300 nM.
The molecule `C[C@@H]1C[C@H](Nc2ccccc2)c2ccccc2N1C(=O)c1ccccc1C(F)(F)F` registered a Fold induction in assay [2] of 1.
Take `Cc1ccc(N[C@H]2C[C@@H](C)N(C(=O)c3ccc(C(F)(F)F)cc3)c3ccc(C)cc32)cc1`: the Rel Max FI in assay [1] was 0.23. The same molecule showed a Fold induction in assay [2] of 69. This molecule also returned a concentration giving a half-maximal response (EC50) at Ecdysone receptor of 4410 nM.
`C[C@@H]1C[C@H](Nc2ccccc2)c2ccccc2N1C(=O)c1ccc(C(F)(F)F)cc1`: in assay [1], the Rel Max FI is 0.64. The Fold induction in assay [2] stood at 89. This molecule gave an EC50 at Ecdysone receptor of 1180 nM.
Turning to `Cc1ccc(N[C@H]2C[C@@H](C)N(C(=O)c3ccccc3)c3ccc(C)cc32)cc1`, in assay [1], the Rel Max FI came to 0.19. In addition, the Fold induction in assay [2] was determined as 35. Besides, at Ecdysone receptor, the EC50 came to 5400 nM.
Taken in the same sequence, the figures for `Cc1ccc(N[C@H]2C[C@@H](C)N(C(=O)c3ccccc3F)c3ccc(C)cc32)cc1` were 0.01, 5 and over 33300 nM.
The matching figures for `Cc1ccc(N[C@H]2C[C@@H](C)N(C(=O)c3ccccc3C)c3ccc(C)cc32)cc1`: 0.04, 19 and 8710 nM.
Taken in the same sequence, the figures for `Cc1ccc(C(=O)N2c3ccccc3[C@@H](Nc3ccccc3)C[C@H]2C)cc1` were 0.42, 64 and 990 nM.
In the case of `Cc1ccc(N[C@H]2C[C@@H](C)N(C(=O)c3cccc(F)c3)c3ccc(C)cc32)cc1`, the Rel Max FI in assay [1] turned out to be 0.27. Moreover, in assay [2], the Fold induction amounted to 102. At Ecdysone receptor, this molecule registered a half-maximal effective concentration (EC50) of 3000 nM.
As to `CCc1c(OC)cccc1C(=O)NN(C(=O)c1cc(C)cc(C)c1)C(C)(C)C`, at Ecdysone receptor, the EC50 is 440 nM.
Consider `C[C@@H]1C[C@H](Nc2ccc(F)cc2)c2cc(F)ccc2N1C(=O)c1cccc(F)c1`, for which the Rel Max FI in assay [1] stood at 0.57. For the same molecule, in assay [2], the Fold induction stood at 204. This molecule also gave a concentration for a half-maximal effect (EC50) at Ecdysone receptor of 990 nM.
Take `COc1cccc(C(=O)N2c3ccccc3[C@@H](Nc3ccccc3)C[C@H]2C)c1`: the Rel Max FI in assay [1] stood at 0.15. Further, the Fold induction in assay [2] is 9. Besides, a half-maximal effect at Ecdysone receptor (EC50) was put at 700 nM.
For `C[C@@H]1C[C@H](Nc2ccccc2)c2ccccc2N1C(=O)c1cccc(C(F)(F)F)c1`, the Rel Max FI in assay [1] turned out to be 0.42. Besides, the Fold induction in assay [2] was 28. The EC50 at Ecdysone receptor turned out to be 1210 nM.
The matching figures for `C[C@@H]1C[C@H](Nc2ccccc2)c2ccccc2N1C(=O)c1cccc(F)c1`: 0.44, 75 and 750 nM.
The matching figures for `COc1ccc(C(=O)N2c3ccc(C)cc3[C@@H](Nc3ccc(C)cc3)C[C@H]2C)cc1`: 0.09, 57 and 5320 nM.
The matching figures for `C[C@@H]1C[C@H](Nc2ccc(F)cc2)c2cc(F)ccc2N1C(=O)c1ccc(Cl)cc1`: 0.7, 212 and 640 nM.
Turning to `Cc1ccc(N[C@H]2C[C@@H](C)N(C(=O)c3ccc(C)cc3)c3ccc(C)cc32)cc1`, the Rel Max FI in assay [1] turned out to be 0.26. The Fold induction in assay [2] was 121. The same molecule displayed an EC50 on Ecdysone receptor of 5000 nM.
The matching figures for `COc1cccc(C(=O)N2c3ccc(F)cc3[C@@H](Nc3ccc(F)cc3)C[C@H]2C)c1`: 0.98, 119 and 1480 nM.
In the case of `C[C@@H]1C[C@H](Nc2ccc(F)cc2)c2cc(F)ccc2N1C(=O)c1ccccc1`, the Rel Max FI in assay [1] came to 0.76. In assay [2], the Fold induction amounted to 283. Moreover, on Ecdysone receptor, a half-maximal response (EC50) required 1730 nM.
The matching figures for `COc1ccc(C(=O)N2c3ccc(F)cc3[C@@H](Nc3ccc(F)cc3)C[C@H]2C)cc1`: 0.87, 110 and 1140 nM.
Turning to `COc1ccccc1C(=O)N1c2ccc(C)cc2[C@@H](Nc2ccc(C)cc2)C[C@H]1C`, the Fold induction in assay [2] amounted to 0.
As to `C[C@@H]1C[C@H](Nc2ccccc2)c2ccccc2N1C(=O)c1ccc(Cl)cc1`, the Rel Max FI in assay [1] worked out at 0.43. The molecule further yielded a Fold induction in assay [2] of 130. Besides, the concentration for a half-maximal effect (EC50) on Ecdysone receptor came out at 980 nM.
The matching figures for `C[C@@H]1C[C@H](Nc2ccc(F)cc2)c2cc(F)ccc2N1C(=O)c1ccccc1F`: 0.28, 78 and 3000 nM.
Taken in the same sequence, the figures for `Cc1ccc(C(=O)N2c3ccc(F)cc3[C@@H](Nc3ccc(F)cc3)C[C@H]2C)cc1` were 0.67, 91 and 870 nM.
The matching figures for `Cc1cccc(C(=O)N2c3ccc(F)cc3[C@@H](Nc3ccc(F)cc3)C[C@H]2C)c1`: 0.55, 686 and 1360 nM.
Turning to `COc1cccc(C(=O)N2c3ccc(C)cc3[C@@H](Nc3ccc(C)cc3)C[C@H]2C)c1`, the Rel Max FI in assay [1] worked out at 0.01. In addition, the Fold induction in assay [2] is 3. The EC50 at Ecdysone receptor is over 33300 nM.
The matching figures for `C[C@@H]1C[C@H](Nc2ccccc2)c2ccccc2N1C(=O)c1ccccc1`: 0.07, 20 and 1120 nM.
The matching figures for `C[C@@H]1C[C@H](Nc2ccc(F)cc2)c2cc(F)ccc2N1C(=O)c1ccc(C(F)(F)F)cc1`: 0.63, 230 and 920 nM.
Taken in the same sequence, the figures for `C[C@@H]1C[C@H](Nc2ccc(F)cc2)c2cc(F)ccc2N1C(=O)c1cccc(C(F)(F)F)c1` were 0.93, 89 and 1000 nM.
In the case of `Cc1ccc(N[C@H]2C[C@@H](C)N(C(=O)c3cccc(C)c3)c3ccc(C)cc32)cc1`, in assay [1], the Rel Max FI turned out to be 0.01. Also, the Fold induction in assay [2] amounted to 6. For the same molecule, the concentration for a half-maximal effect (EC50) at Ecdysone receptor was over 33300 nM.
The matching figures for `COc1ccccc1C(=O)N1c2ccc(F)cc2[C@@H](Nc2ccc(F)cc2)C[C@H]1C`: 0.01, 4 and over 33300 nM.

By EC50 is commonly meant the midpoint of the concentration-response curve.
